Reference: patent EP0470323A2, “New salts of the nicotinic acid with aminobenzylic compounds and their pharmaceutical use” (BROMLEY LIMITED, priority 1990, dated 1992)

Tests used:
[1] = test system: Central artery of a rabbit's ear; test: In vitro antispastic action, adrenalin-induced spasm of the perfused isolated artery; conditions: for % inhibi-tions of the con-tractions: spasm induced by Adrenalin, n=4
Method: An "in vitro" method has been used, according to which the withdrawal of the central artery of a rabbit's ear with the relevant nervous connections and the equipment of an appropriate seat for secluded organs was designed (Fleckenstein A., British Journal of Pharmacology 7, 533, 1952).
On the artery they did install a three-ways tube, connected with a peristaltic pump and with a mercury manometer to record the perfusion pressure. The artery was perfused with a rebs liquid at the speed of 2,5 ml/minute. The contractions were induced by injecting into the vessel 0,1 ml adrenalin at the concentration of 1 mcg/ml. The compound according to the example 1 has been added to the bath at concentrations of 0,5 - 1 - 2 uM, five minutes before the adrenalin (four preparations per concentration). As comparison drugs, chlorhydra ted Buflomedil and Papaverin have been used. The activity of the material under investigation has been appreciated in terms of percentages referring to the concentration induced by the Adrenalin (and expressed with DE₅₀) and the relevant forbidding.

[2] = test system: skin temperature of the mouse's paw; test: Peripheral vessel-dilating activity in the mouse (skin temperature of hind paws); assay type: in vivo; conditions: for Temperature (°C) of the hind paws (n=10): intravenous, dose 0,030 mM/kg/iv; for Temperature (°C) of the hind paws: oral, dose 0,500 mM/kg/os
Method: The method of Richter W. (Acta Pharm. Toxicol. 21, 91; 1974) was used; it consists in determining, at fixed time intervals after the treatment, the skin temperature of the mouse's paw, by keeping the animals in rooms at a constant temperature of 21°C.
Some groups of ten male mouses each have been used; the weight of each animal was 30 g approximately.
The compound according to the Example 1 has been tested "per os" at three basic levels of the doses (0,125 - 0,25 - 0,5 mM/kg) and by intravenous injection at two dose levels (0,015 and 0,03 mM/kg), in comparison with one sole dose of Papaverin and chlorhydrated Buflomedil (0,5 mM/kg "per os" and 0,03m M/kg intravenous). The observation of the skin temperature at the mouse's paw was made before the treatment, 30, 60 and 120 minutes after the "per os" treatment, […] (A-Hl Ellab) connected with an Ellab electric recorder. Of each animal the temperature of both hind paws has been measured, and the values obtained have been averaged .

[3] = 0 minutes (before the treatment)

COc1ccc(Cc2nccc3cc(OC)c(OC)cc23)cc1OC [Papaverin, reference compound]
EC50 ([1]; Oryctolagus cuniculus, read-out: DE50): 760 nM
% inhibi-tions of the con-tractions ([1]; concentration 0,5 μ M): 33%
% inhibi-tions of the con-tractions ([1]; concentration 1,0 μ M): 64%
% inhibi-tions of the con-tractions ([1]; concentration 2,0 μ M): 81%
Temperature (°C) of the hind paws (n=10) [2, 3]: 24,5 ± 0,28 °C
Temperature (°C) of the hind paws (n=10) ([2]; 30 minutes from the treatment): 26,6 ± 0,25 °C
Temperature (°C) of the hind paws (n=10) ([2]; 60 minutes from the treatment): 25,7 ± 0,20 °C
Temperature (°C) of the hind paws (n=10) ([2]; 120 minutes from the treatment): 25,5 ± 0,23 °C
Temperature (°C) of the hind paws [2, 3]: 24,8 ± 0,35 °C
Temperature (°C) of the hind paws ([2]; 30 minutes from the treatment): 25,5 ± 0,21 °C
Temperature (°C) of the hind paws ([2]; 60 minutes from the treatment): 25,9 ± 0,25 °C
Temperature (°C) of the hind paws ([2]; 120 minutes from the treatment): 25,1 ± 0,30 °C
